Relative viability data for five cell lines are collected here from the supplement of paper PMC10307832.

Holding throughout (experiment): relative viability (nuclei count vs DMSO), 5 days (fraction); higher = more cells survive
Compound in the experiment “QS11 + Tozasertib”: C1CC2=C(C1)C=C(C=C2)OC3=NC(=C4C(=N3)N(C=N4)CC5=CC=C(C=C5)C6=CC=CC=C6)N[C@@H](CC7=CC=CC=C7)CO [QS11] + Cc1cc(Nc2cc(N3CCN(C)CC3)nc(Sc3ccc(NC(=O)C4CC4)cc3)n2)n[nH]1 [Tozasertib] (partner 0.1 µM)
An outline of the steps: (§1)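 Nuclei were stained with Hoechst during a one-step fixation (final 0.05% Triton X-100, 1% formaldehyde, 1 ug/ml Hoechst) carried out 5 days after dosing, then counted on 4× images. The cells, lung cancer lines in 1536-well plates, had been dosed by pin tool the day after seeding with one drug alone or a fixed anchor-drug dose plus five library-drug doses (not always all listed) in √10 steps. Relative viability is the nuclei count in treated wells divided by that in vehicle wells, and each value is the median of duplicate plates.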

Compound in the experiment “AZ628 + Trametinib”: CC1=C(C=C(C=C1)NC(=O)C2=CC(=CC=C2)C(C)(C)C#N)NC3=CC4=C(C=C3)N=CN(C4=O)C [AZ628] + CC(=O)Nc1cccc(-n2c(=O)n(C3CC3)c(=O)c3c(Nc4ccc(I)cc4F)n(C)c(=O)c(C)c32)c1 [Trametinib] (partner 0.02 µM)
In short, it runs like this: as §1

Compound in the experiment “AZ628 + Pemetrexed”: CC1=C(C=C(C=C1)NC(=O)C2=CC(=CC=C2)C(C)(C)C#N)NC3=CC4=C(C=C3)N=CN(C4=O)C [AZ628] + Nc1nc2[nH]cc(CCc3ccc(C(=O)N[C@@H](CCC(=O)O)C(=O)O)cc3)c2c(=O)[nH]1 [Pemetrexed] (partner 0.2 µM)
An outline of the steps:
as §1

Compound in the experiment “Darinaparsin + Dasatinib”: C[As](C)SC[C@H](NC(=O)CC[C@H](N)C(=O)O)C(=O)NCC(=O)O [Darinaparsin] + Cc1nc(Nc2ncc(C(=O)Nc3c(C)cccc3Cl)s2)cc(N2CCN(CCO)CC2)n1 [Dasatinib] (partner 0.075 µM)
An outline of the steps:
as §1

Regarding HCC-827, the relative viability in the experiment with QS11 + Tozasertib (first compound 0.08 µM) turned out to be 0.389; with QS11 + Tozasertib (first compound 0.253 µM), 0.416; with QS11 + Tozasertib (first compound 0.8 µM), 0.315; with QS11 + Tozasertib (first compound 2.53 µM), 0.433; with QS11 + Tozasertib (first compound 8 µM), 0.457; in the experiment with AZ628 + Trametinib (first compound 0.08 µM) it was 0.352. The relative viability is 0.348 with AZ628 + Trametinib (first compound 0.253 µM); 0.3 with AZ628 + Trametinib (first compound 0.8 µM); 0.342 with AZ628 + Trametinib (first compound 2.53 µM); 0.316 in the experiment with AZ628 + Trametinib (first compound 8 µM); 0.258 with AZ628 + Pemetrexed (first compound 0.08 µM); 0.209 with AZ628 + Pemetrexed (first compound 0.253 µM). The relative viability with AZ628 + Pemetrexed (first compound 0.8 µM) came out at 0.256; in the experiment with AZ628 + Pemetrexed (first compound 2.53 µM), 0.314; with AZ628 + Pemetrexed (first compound 8 µM), 0.226; in the experiment with Darinaparsin + Dasatinib (first compound 0.08 µM), 0.268; in the experiment with Darinaparsin + Dasatinib (first compound 0.8 µM), 0.397; in the experiment with Darinaparsin + Dasatinib (first compound 2.53 µM), 0.243. Moreover, the relative viability with Darinaparsin + Dasatinib (first compound 8 µM) stood at 0.309.

Consider NCI-H1915, for which the relative viability came to 0.472 with QS11 + Tozasertib (first compound 0.08 µM); 0.494 in the experiment with QS11 + Tozasertib (first compound 0.253 µM); 0.432 with QS11 + Tozasertib (first compound 2.53 µM); 0.374 in the experiment with QS11 + Tozasertib (first compound 8 µM); 0.139 with AZ628 + Trametinib (first compound 0.08 µM); 0.128 with AZ628 + Trametinib (first compound 0.253 µM). Also, the relative viability with AZ628 + Trametinib (first compound 0.8 µM) stood at 0.109; with AZ628 + Trametinib (first compound 2.53 µM) it was 0.144; with AZ628 + Trametinib (first compound 8 µM), 0.0954; in the experiment with AZ628 + Pemetrexed (first compound 0.08 µM), 0.518; in the experiment with AZ628 + Pemetrexed (first compound 0.253 µM), 0.506; in the experiment with AZ628 + Pemetrexed (first compound 0.8 µM), 0.455. The relative viability in the experiment with AZ628 + Pemetrexed (first compound 2.53 µM) is 0.359; with AZ628 + Pemetrexed (first compound 8 µM), 0.242; with Darinaparsin + Dasatinib (first compound 0.08 µM) it was 0.329; with Darinaparsin + Dasatinib (first compound 0.8 µM), 0.32; with Darinaparsin + Dasatinib (first compound 2.53 µM), 0.317; with Darinaparsin + Dasatinib (first compound 8 µM) it was 0.323.

NCI-H2347: the relative viability was found to be 0.434 in the experiment with QS11 + Tozasertib (first compound 0.08 µM); 0.523 with QS11 + Tozasertib (first compound 0.253 µM); 0.51 in the experiment with QS11 + Tozasertib (first compound 0.8 µM); 0.436 with QS11 + Tozasertib (first compound 2.53 µM); 0.572 with QS11 + Tozasertib (first compound 8 µM); 0.233 with AZ628 + Trametinib (first compound 0.08 µM). Moreover, the relative viability was determined as 0.277 in the experiment with AZ628 + Trametinib (first compound 0.253 µM); 0.261 with AZ628 + Trametinib (first compound 0.8 µM); 0.256 in the experiment with AZ628 + Trametinib (first compound 2.53 µM); 0.27 with AZ628 + Trametinib (first compound 8 µM); 0.401 in the experiment with AZ628 + Pemetrexed (first compound 0.08 µM); 0.415 with AZ628 + Pemetrexed (first compound 0.253 µM). Further, the relative viability was 0.354 with AZ628 + Pemetrexed (first compound 0.8 µM); 0.464 with AZ628 + Pemetrexed (first compound 2.53 µM); 0.321 with AZ628 + Pemetrexed (first compound 8 µM); 0.286 in the experiment with Darinaparsin + Dasatinib (first compound 0.08 µM); 0.306 in the experiment with Darinaparsin + Dasatinib (first compound 2.53 µM); 0.289 with Darinaparsin + Dasatinib (first compound 8 µM).

In the case of NCI-H647, the relative viability with QS11 + Tozasertib (first compound 0.08 µM) amounted to 0.287; with QS11 + Tozasertib (first compound 0.253 µM), 0.268; with QS11 + Tozasertib (first compound 0.8 µM), 0.291; in the experiment with QS11 + Tozasertib (first compound 2.53 µM) it was 0.323; in the experiment with QS11 + Tozasertib (first compound 8 µM) it was 0.197; with AZ628 + Trametinib (first compound 0.08 µM), 0.277. Moreover, the relative viability with AZ628 + Trametinib (first compound 0.253 µM) was 0.233; with AZ628 + Trametinib (first compound 0.8 µM), 0.22; in the experiment with AZ628 + Trametinib (first compound 2.53 µM), 0.22; with AZ628 + Trametinib (first compound 8 µM) it was 0.22; with AZ628 + Pemetrexed (first compound 0.08 µM), 0.201; in the experiment with AZ628 + Pemetrexed (first compound 0.253 µM) it was 0.17. For the same cell line, the relative viability with AZ628 + Pemetrexed (first compound 0.8 µM) was 0.179; with AZ628 + Pemetrexed (first compound 2.53 µM), 0.161; with AZ628 + Pemetrexed (first compound 8 µM), 0.151; in the experiment with Darinaparsin + Dasatinib (first compound 0.08 µM), 0.21; with Darinaparsin + Dasatinib (first compound 0.8 µM), 0.205; with Darinaparsin + Dasatinib (first compound 2.53 µM), 0.149. The relative viability in the experiment with Darinaparsin + Dasatinib (first compound 8 µM) stood at 0.233.

On to CAL-12T, for which the relative viability with QS11 + Tozasertib (first compound 0.08 µM) was 0.247; with QS11 + Tozasertib (first compound 0.253 µM), 0.268; with QS11 + Tozasertib (first compound 0.8 µM), 0.299; with QS11 + Tozasertib (first compound 2.53 µM), 0.204; with QS11 + Tozasertib (first compound 8 µM) it was 0.227; in the experiment with AZ628 + Trametinib (first compound 0.08 µM) it was 0.295. In addition, the relative viability in the experiment with AZ628 + Trametinib (first compound 0.253 µM) was 0.248; in the experiment with AZ628 + Trametinib (first compound 0.8 µM), 0.259; in the experiment with AZ628 + Trametinib (first compound 2.53 µM), 0.193; in the experiment with AZ628 + Trametinib (first compound 8 µM), 0.305; with AZ628 + Pemetrexed (first compound 0.08 µM) it was 1.37; with AZ628 + Pemetrexed (first compound 0.253 µM), 1.18. Besides, the relative viability is 1.15 with AZ628 + Pemetrexed (first compound 0.8 µM); 1.33 with AZ628 + Pemetrexed (first compound 2.53 µM); 0.716 in the experiment with AZ628 + Pemetrexed (first compound 8 µM); 0.337 in the experiment with Darinaparsin + Dasatinib (first compound 0.08 µM); 0.381 in the experiment with Darinaparsin + Dasatinib (first compound 0.8 µM); 0.234 with Darinaparsin + Dasatinib (first compound 2.53 µM). Moreover, the relative viability with Darinaparsin + Dasatinib (first compound 8 µM) is 0.315.
